The subject of data set [1] is patients with idiopathic pulmonary fibrosis (IPF). Particulars: Phase II, cited from earlier work.
For data set [2], the target named is PDE4B subunit (Homo sapiens, UniProt Q07343). Particulars: cited from earlier work.
Data set [3] in a line: Form conversion from crystalline Form A to Form B followed by Raman spectroscopy. Type of data set: physicochemical. Particulars: 40° C., n-propanol/water, seeding with Form B. As to the method:
Form A was charged to the reactor as the starting material. 7.0 VP of n-propanol and […] were used along with Raman probe to confirm the rate of conversion by holding the conversion at different temperature. The rate of form conversion from crystalline Form A to crystalline Form B of the PDE4B-inhibitor of formula XX was studied at 20, 40 and 70° C. with 10% seeding with crystalline Form B seeding crystals.
At 20 or 70° C., the conversion rate was similar, but definitely slower than at 40° C.
The temperature of 40° C. allows a full conversion of crystalline Form A into crystalline Form B in less than 4 hours, preferably even in 2 hours (see also FIGS. 1a and 1b). […] However, the crystallization procedure to yield the Compound of formula XX as crystalline Form B (on production scale) as described in Chapter 3.10 reduces the crystallization time down to not more than 9 hours from the timepoint of seeding, which means a significant improvement in the cycling time.

Data set [4] in a line: Competitive slurries containing Form A, Form B and Form C (thermodynamic stability). In kind it is physicochemical. As to the method:
Few other crystalline forms were observed during the initial and extended solid form screening by using various techniques. […] Its thermodynamic stability has been confirmed by competitive slurries containing Form A, Form B and Form C. Form B was the predominant form in all solvents and temperature conditions, except for the solvent water (with a water activity of 1) at temperatures between 5 and 25° C. which yielded Form C.

A short description of data set [5]: Storage stability of intermediates at room temperature. Type of data set: physicochemical. From the text:
The alternative synthesis method to manufacture Intermediate VIII has several advantages over the method of manufacturing Intermediate VIII (or Intermediate G as it is called in U.S. Pat. No. […]): • The new Suzuki-reaction process offers much better control of impurities by avoiding the formation of N-methylation at the piperidine ring. The methylation of the piperidine-ring occurs in the original process according to U.S. Pat. No. 8,609,670 during the use of methanol and 4M hydrochloric acid in 1,4-dioxane and takes place via the in situ formed cancerogenic compound methyl chloride. […] 0.05 m % (0.02 mol %) Pd(amphos)2Cl2 is sufficient for the Suzuki cross-coupling reaction to complete the conversion in less than 3 hours. In literature, significant higher amounts of Pd-catalyst have been described so far [a) K.-T.-Wong et al, Org. […] Second, the reproducibility of yield and quality is very high and consistent as observed on production scale over several batches. […]

Data set [6] can be described thus: Stress test-experiments of the hydrolysis reactions of Intermediate XVII. Type of data set: physicochemical. As to the method: It is shown, that hydrolysis toward IMP-A occurs at 60° C. and 90° C. (examples 1 and 2). The hydrolysis reaction itself is promoted by titanium residues, as example 2 with 671 mg/kg titanium leads to higher impurity levels of IMP-A compared to example 1, which has a lower titanium content (<251 mg/kg).
It is shown, that hydrolysis toward IMP-A occurs at 60° C. and 90° C. (examples 1 and 2). The hydrolysis reaction itself is promoted by titanium residues, as example 2 with 671 mg/kg titanium content leads to higher impurity levels of IMP-A compared to example 1, which has a lower titanium content (<251 mg/kg).

Data set [7] is described as follows: Long-term stability of water-free material regarding hydrolysis side-reactions. In kind it is physicochemical. Particulars: water-free form (recrystallization variant A, 1,4-dioxane). From the text: For example with the additional recrystallization step according to variant A (recrystallization from 1,4-dioxane) Intermediate XVIII is obtained as a water-free form (examples 1 and 2). The water-free material is long-term stable (>12 months) regarding hydrolysis side-reactions, which can occur at two positions of Intermediate XVII by forming IMP-A and IMP-B (see Scheme 5).
In comparison to the process as described in U.S. Pat. No. 8,609,670B, the additional recrystallization step after the enantioselective oxidation step according to variant A yielding Intermediate XVIII also improves the quality of the sulfoxide XVII critically. Hereby, Intermediate XVIII is obtained as a water-free form. The water-free material is long-term stable (>12 months) regarding hydrolysis side-reactions, which can occur at two positions of Intermediate XVII by forming the impurities IMP-A and IMP-B (see Scheme 14).

The mark [8] stands for this setting: batch Example 1, Ti content <251 mg/kg.
[9] abbreviates: batch Example 2, Ti content 671 mg/kg.

Like-named read-outs stand apart in the source and are kept apart here. Bounds are passed on as bounds.

PDE4B subunit, sequence (Q07343 whole entry): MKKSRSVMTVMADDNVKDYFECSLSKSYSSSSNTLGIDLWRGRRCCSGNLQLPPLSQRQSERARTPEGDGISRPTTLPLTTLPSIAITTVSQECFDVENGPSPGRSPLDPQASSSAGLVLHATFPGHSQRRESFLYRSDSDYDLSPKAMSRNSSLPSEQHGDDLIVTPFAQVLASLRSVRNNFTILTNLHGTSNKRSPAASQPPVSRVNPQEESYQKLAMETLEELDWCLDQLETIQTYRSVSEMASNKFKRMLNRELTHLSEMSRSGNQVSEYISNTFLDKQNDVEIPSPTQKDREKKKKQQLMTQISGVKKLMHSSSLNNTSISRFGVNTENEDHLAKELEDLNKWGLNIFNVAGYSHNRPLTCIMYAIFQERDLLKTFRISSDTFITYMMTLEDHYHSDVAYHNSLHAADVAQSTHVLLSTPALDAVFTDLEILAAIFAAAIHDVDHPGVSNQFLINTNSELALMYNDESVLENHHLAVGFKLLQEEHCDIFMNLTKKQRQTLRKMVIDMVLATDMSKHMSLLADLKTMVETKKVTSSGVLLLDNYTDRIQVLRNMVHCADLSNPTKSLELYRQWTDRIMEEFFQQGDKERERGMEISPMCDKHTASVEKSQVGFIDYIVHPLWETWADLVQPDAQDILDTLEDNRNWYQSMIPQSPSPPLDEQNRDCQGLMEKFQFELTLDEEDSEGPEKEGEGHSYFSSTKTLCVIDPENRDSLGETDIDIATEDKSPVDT

`[O-][S@+]1CCc2nc(N3CCC(c4ncc(Cl)cn4)CC3)nc(NC3(CO)CCC3)c21` [Compound XX, 1-({(5R)-2-[4-(5-CHLOROPYRIMIDINE-2-YL)PIPERIDINE-1-YL]-5-OXIDO-6,7-DIHYDROTHIENO[3,2-D]PYRIMIDINE-4-YL}AMINO)CYCLOBUTYL]METHANOL]: the lung function decline result in data set [1] (IPF patients already taking approved antifibrotics (Nintedanib or Pirfenidon) as background) and in data set [1] (IPF patients not on approved antifibrotics as background treatment) was “reduction in lung function decline could be observed” each time. Besides, in data set [1] (IPF patients, within 12 weeks of treatment), the “rate of lung function decline” value is recorded as “reduction in the rate of lung function decline”. The PDE4 subunit preference result in data set [2] is given as “preferentially inhibits the PDE4B subunit”.
For `[O-][S@+]1CCc2nc(N3CCC(c4ncc(Cl)cn4)CC3)nc(NC3(CO)CCC3)c21` [Form A], the “time for full conversion of crystalline Form A into crystalline Form B” value in data set [3] is “less than 4 hours”.
As for `[O-][S@+]1CCc2nc(N3CCC(c4ncc(Cl)cn4)CC3)nc(NC3(CO)CCC3)c21` [Form B], in data set [4], the “thermodynamic stability of crystalline form” value is on record as “thermodynamically most stable form”.
Regarding `CC(C)(C)OC(=O)N1CC=C(c2ncc(Cl)cn2)CC1` [Intermediate VI], the storage stability result in data set [5] is “stable for storage at room temperature”.
As for `[O-][S@+]1CCc2nc(Cl)nc(NC3(CO)CCC3)c21` [Intermediate XVII, 1-[[(5R)-2-chloro-6,7-dihydro-5-oxidothieno[3,2-d]pyrimidin-4-yl]amino]-cyclobutanemethanol], in data set [6] (setting [8]), the “IMP-A content in XVII after 1 week at 60° C.” value amounted to 0.13%, the “IMP-A content in XVII after 1 week at 90° C.” value was found to be 0.16%, the “IMP-A content in XVII at t = 0” value was 0.10% and the “IMP-B content in XVII after 1 week at 60° C.” value worked out at 0.05%. In data set [6] (setting [8]), the “IMP-B content in XVII after 1 week at 90° C.” value is on record as 0.34% and the “IMP-B content in XVII at t = 0” value was <0.05%. In data set [6] (setting [9]), the “IMP-A content in XVII after 1 week at 60° C.” value is recorded as 0.19%, the “IMP-A content in XVII after 1 week at 90° C.” value is 0.32%, the “IMP-A content in XVII at t = 0” value is <0.05% and the “IMP-B content in XVII after 1 week at 60° C.” value is <0.05%. In data set [6] (setting [9]), the “IMP-B content in XVII after 1 week at 90° C.” value is reported as 0.54% and the “IMP-B content in XVII at t = 0” value is <0.05%.
Regarding `[O-][S@+]1CCc2nc(Cl)nc(NC3(CO)CCC3)c21` [Intermediate XVIII], in data set [7], the “long-term stability regarding hydrolysis side-reactions” value is listed as > 12 months.

(Values after patent US20250270230A1, “NOVEL SYNTHETIC STEPS FOR THE MANUFACTURING METHOD OF THE PDE4B-INHIBITOR 1-({(5R)-2-[4-(5-CHLOROPYRIMIDINE-2-YL)PIPERIDINE-1-YL]-5-OXIDO-6,7-DIHYDROTHIENO[3,2-D]PYRIMIDINE-4-YL}AMINO)CYCLOBUTYL]METHANOL” (Boehringer Ingelheim International GmbH, priority 2023, published 2025).)
